The assay deals with ACAT enzyme. Put plainly: Measurement of ACAT enzyme inhibitory activity of rabbit small intestinal microsomes. As to conditions: rabbit small intestinal mucosa microsome fraction 0.5 mg/ml, 43 µM oleoyl CoA containing [1-14C]oleoyl CoA, 37°C for 10 minutes. Type of assay: biochemical. As for the experimental part: Measurement of ACAT enzyme inhibitory activity (measurement of ACAT enzyme inhibitory activity of rabbit small intestinal microsomes
Rabbit small intestinal mucosa microsome was prepared and the ACAT enzyme activity was measured by the method of Salone and Field (reference: Biochemica et Biophysica, vol. 712, p. 557 (1982)) with a slight modification.
Using a 40 mM phosphate buffer containing 30 mM EDTA, 50 mM KCl, and 1.0M sucrose and having a pH of 7.4 (buffer A), rabbit small intestinal mucosa was homogenized. This was centrifuged at 10,000 x g and 4°C for 30 minutes to provide a supernatant. The supernatant was further centrifuged at 105,000 x g and 4°C for 1 hour to provide a precipitate. The precipitate was resuspended in the buffer A and used as the microsome fraction.
To the buffer A containing 43 µM bovine serum albumin and 0.5 mg/ml microsome fraction was added various concentrations of each specimen compound (compounds obtained in Examples 1, 3 to 5, and 7 to 14) in dimethylsulfoxide in amounts of 1% v/v. The mixture was heated at 37°C for 5 minutes. […]
0.111 kBq of [^3H] cholesteryl oleate and IN hydrochloric acid were added, and the mixture was stirred. The cholesteryl oleate extracted into the chloroform layer was isolated by a thin layer chromatography, and the radioactivity was measured as the ACAT activity.

The structures appear in SMILES notation.

This is an account of results in patent publication EP0623608B1, “BENZOPYRAN DERIVATIVE, PRODUCTION THEREOF, AND PHARMACEUTICAL PREPARATION CONTAINING THE SAME AS ACTIVE INGREDIENT” (TEIJIN LIMITED, priority 1992, dated 1993).

Usually IC50 stands for the concentration that inhibits the measured activity by half. A high value points to lower potency. For `CCCCCCCCCCOc1ccc2c(=O)ccoc2c1NC(=O)C(C)(C)C` [Example 8, N-(7-decyloxyl-4-oxo-4H-1-benzopyran8-yl)-2,2-dimethylpropanamide], the IC50 was 0.13 µM.
